{"source": "patent US20190328691A1", "about": "“ANTIBIOTIC THERAPY” (Boulos & Cooper Pharmaceuticals Pty Ltd, priority 2015, published 2019)", "key": {"[1]": {"test_system": "Staphylococcus aureus (BAA-1717)", "test": "Checkerboard combination / MIC assay with S. aureus BAA-1717 (MRSA)", "type": "cell-based", "conditions": "for Effect of individual antibiotic combinations: S. aureus BAA-1717", "summary_of_the_method": "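CLSI broth microdilution checkerboard in CAMHB (5×10^5 CFU/mL, 2% DMSO final). Ramizol or Chlopam was tested in 11-point two-fold series against 7-point antibiotic titrations, starting at 4× MIC.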"}, "[2]": {"test_system": "Staphylococcus aureus (ATCC 29213)", "test": "Checkerboard combination / MIC assay with S. aureus ATCC 29213", "type": "cell-based", "summary_of_the_method": "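CLSI broth microdilution checkerboard in CAMHB, final inoculum 5×10^5 CFU/mL, 2% DMSO. Ramizol or Chlopam (11-point 2-fold) crossed with commercial antibiotics (7-point), each starting at 4× MIC; synergy assessed by FIC index (sum of MIC-in-combination/MIC-alone ratios; ≤0.5 synergy, >4 antagonism).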"}, "[3]": {"test_system": "MRSA strains", "conditions": "cited from earlier work"}}, "data": [{"smiles": "CN[C@H](CC(C)C)C(=O)N[C@H]1C(=O)N[C@@H](CC(N)=O)C(=O)N[C@H]2C(=O)N[C@H]3C(=O)N[C@H](C(=O)N[C@H](C(=O)O)c4cc(O)cc(O)c4-c4cc3ccc4O)[C@H](O)c3ccc(c(Cl)c3)Oc3cc2cc(c3O[C@@H]2O[C@H](CO)[C@@H](O)[C@H](O)[C@H]2O[C@H]2C[C@](C)(N)[C@H](O)[C@H](C)O2)Oc2ccc(cc2Cl)[C@H]1O", "note": "[Vancomycin]", "values": [{"measurement": "FICI of combination with Chlopam", "setting": "[1]; Chlopam 0.001953 μg/mL + labelled antibiotic at MIC of same cell, S. aureus ATCC BAA-1717", "value": 1.0}, {"measurement": "MIC of antibiotic in combination with Chlopam", "setting": "[1]; Chlopam 0.001953 μg/mL, S. aureus ATCC BAA-1717", "value": 1, "unit": "µg/mL"}, {"measurement": "FICI of combination with Chlopam", "setting": "[1]; Chlopam 0.003906 μg/mL + labelled antibiotic at MIC of same cell, S. aureus ATCC BAA-1717", "value": 1.0}, {"measurement": "MIC of antibiotic in combination with Chlopam", "setting": "[1]; Chlopam 0.003906 μg/mL, S. aureus ATCC BAA-1717", "value": 1, "unit": "µg/mL"}, {"measurement": "FICI of combination with Chlopam", "setting": "[1]; Chlopam 0.0078125 μg/mL + labelled antibiotic at MIC of same cell, S. aureus ATCC BAA-1717", "value": 1.0}, {"measurement": "MIC of antibiotic in combination with Chlopam", "setting": "[1]; Chlopam 0.0078125 μg/mL, S. aureus ATCC BAA-1717", "value": 1, "unit": "µg/mL"}, {"measurement": "FICI of combination with Chlopam", "setting": "[1]; Chlopam 0.015625 μg/mL + labelled antibiotic at MIC of same cell, S. aureus ATCC BAA-1717", "value": 1.0}, {"measurement": "MIC of antibiotic in combination with Chlopam", "setting": "[1]; Chlopam 0.015625 μg/mL, S. aureus ATCC BAA-1717", "value": 1, "unit": "µg/mL"}, {"measurement": "FICI of combination with Chlopam", "setting": "[1]; Chlopam 0.5 μg/mL + labelled antibiotic at MIC of same line, S. aureus ATCC BAA-1717", "value": 1.0}, {"measurement": "MIC of antibiotic in combination with Chlopam", "setting": "[1]; Chlopam 0.5 μg/mL, S. aureus ATCC BAA-1717", "value": 0.031, "unit": "µg/mL"}, {"measurement": "Effect of individual antibiotic combinations", "setting": "[1]; Chlopam and Vancomycin: 0.001953 and 1, 0.003901 and 1, 0.0078125 and 1, 0.015625 and 1 μg/mL", "value": "additive effect"}, {"measurement": "FICI of combination with Ramizol", "setting": "[1]; Ramizol 0.015625 μg/mL + labelled antibiotic at MIC of same cell, S. aureus ATCC BAA-1717", "value": 1.0}, {"measurement": "MIC of antibiotic in combination with Ramizol", "setting": "[1]; Ramizol 0.015625 μg/mL, S. aureus ATCC BAA-1717", "value": 1, "unit": "µg/mL"}, {"measurement": "FICI of combination with Ramizol", "setting": "[1]; Ramizol 0.03125 μg/mL + labelled antibiotic at MIC of same cell, S. aureus ATCC BAA-1717", "value": 1.0}, {"measurement": "MIC of antibiotic in combination with Ramizol", "setting": "[1]; Ramizol 0.03125 μg/mL, S. aureus ATCC BAA-1717", "value": 1, "unit": "µg/mL"}, {"measurement": "FICI of combination with Ramizol", "setting": "[1]; Ramizol 0.0625 μg/mL + labelled antibiotic at MIC of same cell, S. aureus ATCC BAA-1717", "value": 1.0}, {"measurement": "MIC of antibiotic in combination with Ramizol", "setting": "[1]; Ramizol 0.0625 μg/mL, S. aureus ATCC BAA-1717", "value": 1, "unit": "µg/mL"}, {"measurement": "FICI of combination with Ramizol", "setting": "[1]; Ramizol 0.125 μg/mL + labelled antibiotic at MIC of same line, S. aureus ATCC BAA-1717", "value": 1.0}, {"measurement": "MIC of antibiotic in combination with Ramizol", "setting": "[1]; Ramizol 0.125 μg/mL, S. aureus ATCC BAA-1717", "value": 1, "unit": "µg/mL"}, {"measurement": "FICI of combination with Ramizol", "setting": "[1]; Ramizol 4 μg/mL + labelled antibiotic at MIC of same cell, S. aureus ATCC BAA-1717", "value": 1.0}, {"measurement": "MIC of antibiotic in combination with Ramizol", "setting": "[1]; Ramizol 4 μg/mL, S. aureus ATCC BAA-1717", "value": 0.031, "unit": "µg/mL"}, {"measurement": "Effect of individual antibiotic combinations", "setting": "[1]; Ramizol and Vancomycin: 0.015625 and 1, 0.03125 and 1, 0.0625 and 1, 0.125 and 1, 4 and 0.031 μg/mL", "value": "additive effect"}, {"measurement": "MIC", "setting": "[1]; Staphylococcus aureus, ATCC BAA-1717 / BAA-1717, read-out: MIC of antibiotic alone", "value": 1, "unit": "µg/mL"}, {"measurement": "MIC of antibiotic alone", "setting": "[1]; Table 7, checkerboard series with Ramizol, S. aureus ATCC BAA-1717", "value": 1, "unit": "µg/mL"}, {"measurement": "mean FICI of combination with Chlopam", "setting": "[1]; labelled antibiotic + Chlopam, mean of all pairwise combinations, S. aureus ATCC BAA-1717", "value": 1.2}, {"measurement": "mean FICI of combination with Ramizol", "setting": "[1]; labelled antibiotic + Ramizol, mean of all pairwise combinations, S. aureus ATCC BAA-1717", "value": 1.2}, {"measurement": "FICI of combination with Chlopam", "setting": "[2]; Chlopam 0.003906 μg/mL + labelled antibiotic at MIC of same cell, S. aureus ATCC 29213", "value": 1.0}, {"measurement": "MIC of antibiotic in combination with Chlopam", "setting": "[2]; Chlopam 0.003906 μg/mL, S. aureus ATCC 29213", "value": 1, "unit": "µg/mL"}, {"measurement": "FICI of combination with Chlopam", "setting": "[2]; Chlopam 0.0078125 μg/mL + labelled antibiotic at MIC of same cell, S. aureus ATCC 29213", "value": 1.0}, {"measurement": "MIC of antibiotic in combination with Chlopam", "setting": "[2]; Chlopam 0.0078125 μg/mL, S. aureus ATCC 29213", "value": 1, "unit": "µg/mL"}, {"measurement": "FICI of combination with Chlopam", "setting": "[2]; Chlopam 0.015625 μg/mL + labelled antibiotic at MIC of same cell, S. aureus ATCC 29213", "value": 1.0}, {"measurement": "MIC of antibiotic in combination with Chlopam", "setting": "[2]; Chlopam 0.015625 μg/mL, S. aureus ATCC 29213", "value": 1, "unit": "µg/mL"}, {"measurement": "FICI of combination with Chlopam", "setting": "[2]; Chlopam 0.125 μg/mL + labelled antibiotic at MIC of same line, S. aureus ATCC 29213", "value": 0.8}, {"measurement": "MIC of antibiotic in combination with Chlopam", "setting": "[2]; Chlopam 0.125 μg/mL, S. aureus ATCC 29213", "value": 0.5, "unit": "µg/mL"}, {"measurement": "FICI of combination with Chlopam", "setting": "[2]; Chlopam 0.25 μg/mL + labelled antibiotic at MIC of same cell, S. aureus ATCC 29213", "value": 1.0}, {"measurement": "MIC of antibiotic in combination with Chlopam", "setting": "[2]; Chlopam 0.25 μg/mL, S. aureus ATCC 29213", "value": 0.5, "unit": "µg/mL"}, {"measurement": "Effect of individual antibiotic combinations", "setting": "[2]; Chlopam and Vancomycin: 0.003901 and 1, 0.0078125 and 1, 0.015625 and 1, 0.125 and 0.5, 0.25 and 0.5 μg/mL, S. aureus ATCC 29213", "value": "additive effect"}, {"measurement": "FICI of combination with Ramizol", "setting": "[2]; Ramizol 0.015625 μg/mL + labelled antibiotic at MIC of same cell, S. aureus ATCC 29213", "value": 1.0}, {"measurement": "MIC of antibiotic in combination with Ramizol", "setting": "[2]; Ramizol 0.015625 μg/mL, S. aureus ATCC 29213", "value": 1, "unit": "µg/mL"}, {"measurement": "FICI of combination with Ramizol", "setting": "[2]; Ramizol 0.03125 μg/mL + labelled antibiotic at MIC of same cell, S. aureus ATCC 29213", "value": 1.0}, {"measurement": "MIC of antibiotic in combination with Ramizol", "setting": "[2]; Ramizol 0.03125 μg/mL, S. aureus ATCC 29213", "value": 1, "unit": "µg/mL"}, {"measurement": "FICI of combination with Ramizol", "setting": "[2]; Ramizol 0.0625 μg/mL + labelled antibiotic at MIC of same cell, S. aureus ATCC 29213", "value": 1.0}, {"measurement": "MIC of antibiotic in combination with Ramizol", "setting": "[2]; Ramizol 0.0625 μg/mL, S. aureus ATCC 29213", "value": 1, "unit": "µg/mL"}, {"measurement": "FICI of combination with Ramizol", "setting": "[2]; Ramizol 0.125 μg/mL + labelled antibiotic at MIC of same cell, S. aureus ATCC 29213", "value": 1.0}, {"measurement": "MIC of antibiotic in combination with Ramizol", "setting": "[2]; Ramizol 0.125 μg/mL, S. aureus ATCC 29213", "value": 1, "unit": "µg/mL"}, {"measurement": "Effect of individual antibiotic combinations", "setting": "[2]; Ramizol and Vancomycin: 0.015625 and 1, 0.03125 and 1, 0.0625 and 1, 0.125 and 1 μg/mL, S. aureus ATCC 29213", "value": "additive effect"}, {"measurement": "MIC", "setting": "[2]; Staphylococcus aureus, ATCC29213, read-out: MIC of antibiotic alone", "value": 1, "unit": "µg/mL"}, {"measurement": "MIC of antibiotic alone", "setting": "[2]; Table 7, checkerboard series with Ramizol, S. aureus ATCC 29213", "value": 1, "unit": "µg/mL"}, {"measurement": "Effect of the combinations with Chlopam (by mean FICI)", "setting": "[2]; labelled antibiotic + Chlopam, S. aureus ATCC 29213", "value": "additive effect"}, {"measurement": "mean FICI of combination with Chlopam", "setting": "[2]; labelled antibiotic + Chlopam, mean of all pairwise combinations, S. aureus ATCC 29213", "value": 1.0}, {"measurement": "mean FICI of combination with Ramizol", "setting": "[2]; labelled antibiotic + Ramizol, mean of all pairwise combinations, S. aureus ATCC 29213", "value": 1.2}, {"measurement": "MIC", "setting": "[3]; MRSA strains fully resistant to vancomycin", "value": "≥ 32", "unit": "µg/mL"}, {"measurement": "minimum inhibitory concentration [MIC]", "setting": "[3]; MRSA strains with decreased susceptibility to vancomycin", "value": "4 to 8", "unit": "µg/mL"}]}]}
